Data on 1 molecule can be found in publication PMC7983974 (Basic & Clinical Pharmacology & Toxicology, 2020).

One data set deals with T1, UGT1A4 (Homo sapiens, UniProt P22310).
T1 sequence (P22310 29-534): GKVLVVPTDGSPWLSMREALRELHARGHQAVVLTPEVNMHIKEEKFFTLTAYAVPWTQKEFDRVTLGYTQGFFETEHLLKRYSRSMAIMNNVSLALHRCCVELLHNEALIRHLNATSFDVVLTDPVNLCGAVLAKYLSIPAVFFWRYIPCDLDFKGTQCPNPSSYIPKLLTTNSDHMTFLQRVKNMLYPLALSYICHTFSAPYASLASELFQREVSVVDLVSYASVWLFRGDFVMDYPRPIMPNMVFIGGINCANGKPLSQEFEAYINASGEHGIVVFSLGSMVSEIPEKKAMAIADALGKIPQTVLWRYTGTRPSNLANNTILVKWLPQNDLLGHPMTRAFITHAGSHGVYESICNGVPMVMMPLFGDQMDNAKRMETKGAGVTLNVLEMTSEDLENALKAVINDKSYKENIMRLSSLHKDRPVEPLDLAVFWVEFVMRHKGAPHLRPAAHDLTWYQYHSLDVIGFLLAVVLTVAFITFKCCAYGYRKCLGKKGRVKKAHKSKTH
Nature of the data set: M1 formation from molidustat by recombinant UGT1A4. Type of data set: in vitro ADME. The conditions noted are these: 1 and 10 µmol L^−1.

For another data set, the target named is T2, UGT1A6 (Homo sapiens, UniProt P19224).
T2 sequence (P19224 27-532): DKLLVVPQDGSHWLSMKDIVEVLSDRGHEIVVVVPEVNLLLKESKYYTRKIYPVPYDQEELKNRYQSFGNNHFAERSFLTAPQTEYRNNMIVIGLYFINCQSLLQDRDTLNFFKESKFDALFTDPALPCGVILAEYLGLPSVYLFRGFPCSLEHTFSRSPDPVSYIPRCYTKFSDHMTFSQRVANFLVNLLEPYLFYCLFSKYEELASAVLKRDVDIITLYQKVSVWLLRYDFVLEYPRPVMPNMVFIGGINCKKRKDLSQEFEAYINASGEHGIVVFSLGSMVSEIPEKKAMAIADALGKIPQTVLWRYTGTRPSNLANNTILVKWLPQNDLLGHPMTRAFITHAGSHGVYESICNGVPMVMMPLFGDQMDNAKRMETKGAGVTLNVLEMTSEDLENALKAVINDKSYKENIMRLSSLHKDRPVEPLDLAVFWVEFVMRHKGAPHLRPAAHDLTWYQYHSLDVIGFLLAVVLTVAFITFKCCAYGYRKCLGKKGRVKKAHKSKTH
Nature of the data set: M1 formation from molidustat by recombinant UGT1A6. Type of data set: in vitro ADME. The conditions noted are these: 1 and 10 µmol L^−1.

For a further data set, the target named is T3, UGT2B7 (Homo sapiens, UniProt P16662).
T3 sequence (P16662 24-529): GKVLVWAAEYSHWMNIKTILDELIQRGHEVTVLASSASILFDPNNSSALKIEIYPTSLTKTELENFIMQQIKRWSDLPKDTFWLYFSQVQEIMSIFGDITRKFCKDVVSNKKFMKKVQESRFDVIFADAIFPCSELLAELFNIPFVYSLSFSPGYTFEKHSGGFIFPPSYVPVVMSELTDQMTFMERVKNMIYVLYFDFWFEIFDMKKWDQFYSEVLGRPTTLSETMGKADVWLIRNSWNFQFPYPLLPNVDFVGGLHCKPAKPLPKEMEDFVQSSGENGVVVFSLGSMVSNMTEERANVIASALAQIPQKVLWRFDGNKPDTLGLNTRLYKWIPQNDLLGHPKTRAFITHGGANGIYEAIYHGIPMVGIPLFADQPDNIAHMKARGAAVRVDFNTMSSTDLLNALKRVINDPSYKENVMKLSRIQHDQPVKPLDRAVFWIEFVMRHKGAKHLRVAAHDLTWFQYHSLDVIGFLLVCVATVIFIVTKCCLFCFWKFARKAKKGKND
Nature of the data set: M1 formation from molidustat by recombinant UGT2B7. Type of data set: in vitro ADME. The conditions noted are these: 1 and 10 µmol L^−1.

Another data set addresses T4, UGT2B15 (Homo sapiens, UniProt P54855).
T4 sequence (P54855 24-530): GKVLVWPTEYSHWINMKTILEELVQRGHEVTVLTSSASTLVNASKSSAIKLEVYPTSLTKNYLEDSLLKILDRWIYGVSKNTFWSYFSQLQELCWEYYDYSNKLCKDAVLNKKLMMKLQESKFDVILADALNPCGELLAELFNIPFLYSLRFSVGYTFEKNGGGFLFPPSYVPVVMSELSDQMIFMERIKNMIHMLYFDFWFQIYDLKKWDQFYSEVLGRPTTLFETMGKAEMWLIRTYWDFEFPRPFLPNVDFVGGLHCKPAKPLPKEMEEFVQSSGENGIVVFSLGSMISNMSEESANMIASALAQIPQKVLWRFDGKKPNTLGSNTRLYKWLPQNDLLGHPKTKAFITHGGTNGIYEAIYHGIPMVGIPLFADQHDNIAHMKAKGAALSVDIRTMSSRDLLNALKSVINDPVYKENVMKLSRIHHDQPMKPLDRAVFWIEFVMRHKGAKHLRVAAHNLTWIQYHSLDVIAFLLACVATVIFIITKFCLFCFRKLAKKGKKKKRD
Nature of the data set: M1 formation from molidustat by recombinant UGT2B15. The conditions noted are these: 1 and 10 µmol L^−1. Type of data set: in vitro ADME.

The target in a further data set is T5, UGT2B17 (Homo sapiens, UniProt O75795).
T5 sequence (O75795 24-530): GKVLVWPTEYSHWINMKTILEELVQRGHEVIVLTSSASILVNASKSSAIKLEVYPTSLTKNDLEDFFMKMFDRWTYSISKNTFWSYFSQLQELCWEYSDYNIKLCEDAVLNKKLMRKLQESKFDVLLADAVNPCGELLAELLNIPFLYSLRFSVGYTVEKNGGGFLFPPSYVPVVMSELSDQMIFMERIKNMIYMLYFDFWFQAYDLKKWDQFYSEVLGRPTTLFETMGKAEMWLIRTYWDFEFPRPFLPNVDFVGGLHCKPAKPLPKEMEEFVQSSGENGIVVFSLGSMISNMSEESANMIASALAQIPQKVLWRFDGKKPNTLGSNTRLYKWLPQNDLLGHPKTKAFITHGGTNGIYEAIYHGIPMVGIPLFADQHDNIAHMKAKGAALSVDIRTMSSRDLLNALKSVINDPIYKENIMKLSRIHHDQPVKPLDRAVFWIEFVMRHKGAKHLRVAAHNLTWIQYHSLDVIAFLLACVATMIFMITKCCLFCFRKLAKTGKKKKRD
Nature of the data set: M1 formation from molidustat by recombinant UGT2B17. The conditions noted are these: 1 and 10 µmol L^−1. Type of data set: in vitro ADME.

Data set [1] deals with UGT-mediated glucuronidation of molidustat. Nature of the data set: Enzyme kinetics of molidustat glucuronidation in pooled human liver microsomes. Type of data set: in vitro ADME. The conditions noted are these: human, pooled human liver microsomes, pH 7.4. For orientation: Liver microsomes are vesicles of endoplasmic reticulum, rich in cytochrome P450 enzymes.
Data set [2] concerns pooled human liver microsomes. Described as above. Type of data set: in vitro ADME. The conditions noted are these: human liver microsomes, Hill equation.
The conditions of data set [3]: human, cited from earlier work; for absolute oral bioavailability: oral (IR tablet).
The next data set has as its system HIF‐PH (EC 1.14.11.29). The conditions noted are these: cited from earlier work.

Where two headings read alike, the source gives them in different places.

With `O=c1c(-n2ccnn2)c[nH]n1-c1cc(N2CCOCC2)ncn1` [Molidustat], the “activity for glucuronidation of molidustat” value on UGT1A4, on UGT1A6, at UGT2B7, on UGT2B15 and on UGT2B17 was “lacked measurable activity” throughout. Further, the Km in data set [1] turned out to be 90 µM. The “estimated S50” value in data set [2] is 90 µmol/L. Moreover, the absolute oral bioavailability entry in data set [3] is “about 60%”; in data set [3] (listed as molidustat) it was 59%. Further, the “fraction of the dose excreted as molidustat via faeces” value in data set [3] is ~ 6%. For the same molecule, the “fraction of the dose excreted as molidustat via urine” value in data set [3] is ~ 4%. Also, the “inhibition of HIF‐PH” value in the data set with HIF‐PH (EC 1.14.11.29) is recorded as “nanomolar concentration range”.

The term Km denotes the substrate concentration at which the rate is half of its maximum.
